Key:
Assay type in all cases: biochemical
PAK2 (PAK65) = PAK2 (PAK65) (Homo sapiens, UniProt Q13177); assay: In vitro PAK inhibition assay (Z'-LYTE, SelectScreen), PAK2; conditions: read-out: PAK2 IC50
Experimental: (§1) Compounds are screened in 1% DMSO (final) in the well. For 10 point titrations, 3-fold serial dilutions are conducted. All Peptide/Kinase Mixtures are diluted to a 2× working concentration in the appropriate Kinase Buffer
The 2×PAK2 (PAK65)/Ser/Thr 20 mixture is prepared in 50 mM HEPES pH 7.5, 0.01% BRIJ-35, 10 mM MgCl2, 1 mM EGTA. The final 10 μL Kinase Reaction consists of 0.29-6 ng PAK2 (PAK65) and 2 μM Ser/Thr 20 in 50 mM HEPES pH 7.5, 0.01% BRIJ-35, 10 mM MgCl2, 1 mM EGTA.
(§2) 1. Add the following solutions to a well in a 384-well plate: • 2.5 μL of 4× Test Compound OR (100 nL 100× Test Compound plus 2.4 μL kinase buffer) • 5 μL of 2× Peptide/Kinase (PAK) Mixture • 2.5 μL of 4×ATP Solution
(§3) 3. Incubate the PAK Kinase Reaction at room temperature for 60-minutes
(§4) 4. Add 5 μL of Development Reagent Solution to each well
(§5) 6. Incubate the Development Reaction for 60-minutes
(§6) 7. Determine the fluorescence using a fluorescence plate reader
(§7) SelectScreen® Kinase Profiling Service uses XLfit from IDBS.
(§8) The representative IC50 value with a known inhibitor for each kinase was determined at the ATP bin nearest to the ATP Km app.

PAK3 = PAK3 (Homo sapiens, UniProt O75914); assay: In vitro PAK inhibition assay (Z'-LYTE, SelectScreen), PAK3; conditions: read-out: PAK3 IC50
Experimental: as §1
The 2×PAK3/Ser/Thr 20 mixture is prepared in 50 mM HEPES pH 7.5, 0.01% BRIJ-35, 10 mM MgCl2, 1 mM EGTA.
as §2, §3, §4, §5, §6, §7, §8

PAK1 = PAK1 (Homo sapiens, UniProt Q13153); assay: In vitro PAK inhibition assay (Z'-LYTE, SelectScreen), PAK1; conditions: read-out: PAK1 IC50
Experimental: as §1
The 2×PAK1/Ser/Thr 19 mixture is prepared in 50 mM HEPES pH 7.5, 0.01% BRIJ-35, 10 mM MgCl2, 1 mM EGTA.
as §2, §3, §4, §5, §6, §7, §8

PAK4 = PAK4 (Homo sapiens, UniProt O96013); assay: In vitro PAK inhibition assay (Z'-LYTE, SelectScreen), PAK4
Experimental: as §1
The 2×PAK-4/Ser/Thr 20 mixture is prepared in 50 mM HEPES pH 7.5, 0.01% BRIJ-35, 10 mM MgCl2, 1 mM EGTA. The final 10 μL Kinase Reaction consists of 0.1-0.75 ng PAK-4 and 2 μM Ser/Thr 20 in 50 mM HEPES pH 7.5, 0.01% BRIJ-35, 10 mM MgCl2, 1 mM EGTA. After the 1 hour Kinase Reaction incubation, 5 μL of a 1:256 dilution of Development Reagent A is added.
as §2, §3, §4, §5, §6
SelectScreen® Kinase Profiling Service uses XLfit from IDBS. The dose response curve is curve fit to model number 205 (sigmoidal dose-response model).
The table below provides specifications and data around each kinase. The representative IC50 value with a known inhibitor for each kinase was determined at the ATP bin nearest to the ATP Km app.

Sequence of PAK1 (Q13153 whole entry): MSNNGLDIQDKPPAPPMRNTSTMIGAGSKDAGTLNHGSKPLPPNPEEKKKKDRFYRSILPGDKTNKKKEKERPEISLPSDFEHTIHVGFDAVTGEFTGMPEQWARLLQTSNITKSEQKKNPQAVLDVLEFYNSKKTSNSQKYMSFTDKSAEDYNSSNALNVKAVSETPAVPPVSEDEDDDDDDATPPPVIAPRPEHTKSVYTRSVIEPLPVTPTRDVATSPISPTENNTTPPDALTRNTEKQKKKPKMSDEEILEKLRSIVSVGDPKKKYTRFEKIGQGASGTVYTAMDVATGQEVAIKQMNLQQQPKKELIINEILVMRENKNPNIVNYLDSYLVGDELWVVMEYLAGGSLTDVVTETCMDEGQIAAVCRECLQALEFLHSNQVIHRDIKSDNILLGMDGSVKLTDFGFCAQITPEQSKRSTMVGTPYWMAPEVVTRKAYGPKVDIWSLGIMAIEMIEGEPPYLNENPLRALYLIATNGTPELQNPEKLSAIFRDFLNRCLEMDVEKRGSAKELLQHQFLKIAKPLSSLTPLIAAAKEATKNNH
Sequence of PAK4 (O96013 whole entry): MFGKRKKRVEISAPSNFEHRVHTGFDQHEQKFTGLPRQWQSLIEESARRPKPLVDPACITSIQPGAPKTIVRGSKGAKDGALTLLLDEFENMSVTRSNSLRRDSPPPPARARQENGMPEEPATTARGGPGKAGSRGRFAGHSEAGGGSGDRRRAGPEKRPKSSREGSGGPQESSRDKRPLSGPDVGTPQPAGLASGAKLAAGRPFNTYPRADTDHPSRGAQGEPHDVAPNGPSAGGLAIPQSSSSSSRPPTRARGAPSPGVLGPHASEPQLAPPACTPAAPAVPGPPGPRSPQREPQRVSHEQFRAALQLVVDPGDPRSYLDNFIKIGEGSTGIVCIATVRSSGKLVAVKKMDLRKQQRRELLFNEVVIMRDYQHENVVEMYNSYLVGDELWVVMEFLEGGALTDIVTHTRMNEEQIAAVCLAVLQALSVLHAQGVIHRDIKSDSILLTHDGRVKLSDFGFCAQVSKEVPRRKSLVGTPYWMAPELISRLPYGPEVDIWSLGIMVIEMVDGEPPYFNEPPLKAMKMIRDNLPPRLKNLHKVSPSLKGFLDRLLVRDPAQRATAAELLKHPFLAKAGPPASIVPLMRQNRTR
Sequence of PAK3 (O75914 1-544 isoform O75914-2): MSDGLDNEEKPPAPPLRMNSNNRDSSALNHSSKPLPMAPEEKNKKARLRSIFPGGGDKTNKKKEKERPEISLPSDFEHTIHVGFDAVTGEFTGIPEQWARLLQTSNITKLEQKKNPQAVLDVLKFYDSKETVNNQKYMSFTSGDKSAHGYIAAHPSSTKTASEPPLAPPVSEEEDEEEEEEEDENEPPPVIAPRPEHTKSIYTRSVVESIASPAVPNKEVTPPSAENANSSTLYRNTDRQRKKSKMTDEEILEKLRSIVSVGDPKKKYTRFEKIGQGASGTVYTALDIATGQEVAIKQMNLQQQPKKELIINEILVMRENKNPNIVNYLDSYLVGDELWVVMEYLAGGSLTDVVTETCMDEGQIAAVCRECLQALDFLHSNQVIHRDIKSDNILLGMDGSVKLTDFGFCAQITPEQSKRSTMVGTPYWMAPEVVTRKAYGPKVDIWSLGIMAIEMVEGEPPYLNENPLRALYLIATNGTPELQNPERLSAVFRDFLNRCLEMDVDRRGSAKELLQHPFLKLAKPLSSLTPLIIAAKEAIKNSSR
Sequence of PAK2 (PAK65) (Q13177 whole entry): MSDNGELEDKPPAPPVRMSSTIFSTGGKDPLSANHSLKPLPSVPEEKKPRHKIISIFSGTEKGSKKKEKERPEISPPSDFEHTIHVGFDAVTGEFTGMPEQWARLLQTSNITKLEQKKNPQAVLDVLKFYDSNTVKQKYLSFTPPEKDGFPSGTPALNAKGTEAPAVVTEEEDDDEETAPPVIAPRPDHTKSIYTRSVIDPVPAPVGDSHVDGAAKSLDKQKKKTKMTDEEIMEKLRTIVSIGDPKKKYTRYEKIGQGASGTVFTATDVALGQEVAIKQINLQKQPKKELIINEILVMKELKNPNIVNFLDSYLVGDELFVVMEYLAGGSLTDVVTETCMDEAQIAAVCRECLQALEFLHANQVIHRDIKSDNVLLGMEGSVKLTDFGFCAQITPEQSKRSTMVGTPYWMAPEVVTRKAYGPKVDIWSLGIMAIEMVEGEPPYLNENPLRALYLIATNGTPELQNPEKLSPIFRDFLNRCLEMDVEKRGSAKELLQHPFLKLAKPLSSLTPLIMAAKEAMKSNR

SMILES: CCn1c(=O)c(-c2ccc(-c3nccnc3C)cc2Cl)cc2cnc(NC3CCN(C)C(=O)C3)nc21 (stereo not drawn) [Example 35]
- IC50 (PAK2 (PAK65)): 0.05 to 0.5 µM
- IC50 (PAK3): 0.05 to 0.5 µM
- IC50 (PAK1): 0.05 to 0.5 µM
- IC50 (PAK4): > 5 µM

SMILES: CCn1c(=O)c(-c2ccc(-c3nccnc3C)cc2Cl)cc2cnc(NC3CCN(C(C)=O)CC3)nc21 [Example 80]
- IC50 (PAK2 (PAK65)): 0.05 to 0.5 µM
- IC50 (PAK3): 0.5 to 5 µM
- IC50 (PAK1): 0.5 to 5 µM
- IC50 (PAK4): > 5 µM

SMILES: Cc1cncc(-c2ccc(-c3cc4cnc(N[C@@H]5CCOC5)nc4n(CCCN)c3=O)c(Cl)c2)n1 [Example 97]
- IC50 (PAK2 (PAK65)): < 0.05 µM
- IC50 (PAK3): 0.05 to 0.5 µM
- IC50 (PAK1): 0.05 to 0.5 µM
- IC50 (PAK4): > 5 µM

SMILES: CCn1c(=O)c(-c2ccc(-c3cncc(C)n3)cc2Cl)cc2cnc(N[C@H]3CCOC3)nc21 [Example 27]
- IC50 (PAK2 (PAK65)): < 0.05 µM
- IC50 (PAK3): 0.05 to 0.5 µM
- IC50 (PAK1): 0.05 to 0.5 µM
- IC50 (PAK4): > 5 µM

SMILES: CCn1c(=O)c(-c2ccc(-c3ccncc3)cc2Cl)cc2cnc(NC3CCOCC3)nc21 [Example 43]
- IC50 (PAK2 (PAK65)): 0.5 to 5 µM
- IC50 (PAK3): > 5 µM
- IC50 (PAK1): 0.5 to 5 µM
- IC50 (PAK4): > 5 µM

SMILES: CCn1c(=O)c(-c2ccc(-c3nccnc3C)cc2Cl)cc2cnc(NC3CCCOC3)nc21 (stereo not drawn) [Example 17]
- IC50 (PAK2 (PAK65)): 0.05 to 0.5 µM
- IC50 (PAK3): 0.05 to 0.5 µM
- IC50 (PAK1): 0.05 to 0.5 µM
- IC50 (PAK4): > 5 µM

SMILES: Cc1nccnc1-c1ccc(-c2cc3cnc(N[C@H]4CCOC4)nc3n(Cc3ccccn3)c2=O)c(Cl)c1 [Example 125]
- IC50 (PAK2 (PAK65)): < 0.05 µM
- IC50 (PAK3): 0.05 to 0.5 µM
- IC50 (PAK1): < 0.05 µM
- IC50 (PAK4): > 5 µM

SMILES: Cc1cncc(-c2ccc(-c3cc4cnc(NC5CC5)nc4n([C@H]4CC[C@H](N)CC4)c3=O)c(Cl)c2)n1 [Example 112]
- IC50 (PAK2 (PAK65)): < 0.05 µM
- IC50 (PAK3): < 0.05 µM
- IC50 (PAK1): < 0.05 µM
- IC50 (PAK4): 0.5 to 5 µM

SMILES: CCn1c(=O)c(-c2ccc(-c3cccnc3)cc2Cl)cc2cnc(NC3CCOCC3)nc21 [Example 44]
- IC50 (PAK2 (PAK65)): 0.05 to 0.5 µM
- IC50 (PAK3): 0.05 to 0.5 µM
- IC50 (PAK1): 0.05 to 0.5 µM
- IC50 (PAK4): > 5 µM

SMILES: Cc1nccnc1-c1ccc(-c2cc3cnc(N[C@@H]4CCOC4)nc3n(Cc3ccncc3)c2=O)c(Cl)c1 [Example 124]
- IC50 (PAK2 (PAK65)): 0.05 to 0.5 µM
- IC50 (PAK3): 0.5 to 5 µM
- IC50 (PAK1): 0.05 to 0.5 µM
- IC50 (PAK4): > 5 µM

SMILES: O=c1c(-c2ccc(-c3cccnc3)cc2Cl)cc2cnc(NC3CCOCC3)nc2n1Cc1ccccc1C(F)(F)F [Example 22]
- IC50 (PAK2 (PAK65)): < 0.05 µM
- IC50 (PAK3): 0.05 to 0.5 µM
- IC50 (PAK1): 0.05 to 0.5 µM
- IC50 (PAK4): > 5 µM

SMILES: CCn1c(=O)c(-c2ccc(-c3cncc(C)n3)cc2Cl)cc2cnc(N[C@H]3CC[C@H](CN(C)C)CC3)nc21 [Example 84, 6-(2-chloro-4-(6-methylpyrazin-2-yl)phenyl)-2-((trans-1,4)-4-((dimethylamino)methyl)cyclohexylamino)-8-ethylpyrido[2,3-d]pyrimidin-7(8H)-one]
- IC50 (PAK2 (PAK65)): < 0.05 µM
- IC50 (PAK3): < 0.05 µM
- IC50 (PAK1): < 0.05 µM
- IC50 (PAK4): > 5 µM

SMILES: CCn1c(=O)c(-c2ccc(-c3nccnc3C)cc2Cl)cc2cnc(NC3CCNC3)nc21 (stereo not drawn) [Example 83]
- IC50 (PAK2 (PAK65)): 0.05 to 0.5 µM
- IC50 (PAK3): 0.5 to 5 µM
- IC50 (PAK1): 0.05 to 0.5 µM
- IC50 (PAK4): > 5 µM

SMILES: CCn1c(=O)c(-c2ccc(-c3cccnc3F)cc2Cl)cc2cnc(NC3CCOCC3)nc21 [Example 12]
- IC50 (PAK2 (PAK65)): 0.05 to 0.5 µM
- IC50 (PAK3): < 0.05 µM
- IC50 (PAK1): < 0.05 µM
- IC50 (PAK4): > 5 µM

SMILES: CCn1c(=O)c(-c2ccc(-c3nccnc3C)cc2Cl)cc2cnc(NC3CCOC(C)(C)C3)nc21 (racemic) [Example 30]
- IC50 (PAK2 (PAK65)): < 0.05 µM
- IC50 (PAK3): < 0.05 µM
- IC50 (PAK1): < 0.05 µM
- IC50 (PAK4): > 5 µM

SMILES: CCn1c(=O)c(-c2ccc(-c3cnccn3)cc2Cl)cc2cnc(N[C@@H]3CCOC3)nc21 [Example 60]
- IC50 (PAK2 (PAK65)): 0.05 to 0.5 µM
- IC50 (PAK3): 0.5 to 5 µM
- IC50 (PAK1): 0.05 to 0.5 µM
- IC50 (PAK4): > 5 µM

SMILES: CCn1c(=O)c(-c2ccc(-c3nccnc3C)cc2Cl)cc2cnc(NC3CCS(=O)(=O)CC3)nc21 [Example 75]
- IC50 (PAK2 (PAK65)): 0.05 to 0.5 µM
- IC50 (PAK3): 0.5 to 5 µM
- IC50 (PAK1): 0.05 to 0.5 µM
- IC50 (PAK4): > 5 µM

SMILES: Cc1nccnc1-c1ccc(-c2cc3cnc(NC4CCOCC4)nc3n(C)c2=O)c(Cl)c1 [Example 9]
- IC50 (PAK2 (PAK65)): 0.05 to 0.5 µM
- IC50 (PAK3): 0.05 to 0.5 µM
- IC50 (PAK1): 0.05 to 0.5 µM
- IC50 (PAK4): > 5 µM
